Measured values from PMC9382030, “A mechanism for exocyst-mediated tethering via Arf6 and PIP5K1C-driven phosphoinositide conversion” (Current biology : CB, 2022).

Legend:
Assay in all cases: membrane-coated bead recruitment, confocal fluorescence, single-site fit
Type in all cases: binding
Details in all cases: apparent affinity in protein concentration; 5 mol% PI(4,5)P2, 85% POPC, 10% phosphatidylserine on silica beads; room temperature, 30 min; 20 mM HEPES, 150 mM NaCl; read-out: KD,relative
exocyst holocomplex = biological target: T1, exocyst holocomplex (Homo sapiens, UniProt Q9NV70+Q9UPT5)
T1 construct: gene EXOC1; Sf9 baculovirus; hetero-octamer; 6xHis-mNeonGreen-Exoc6 (tag kept), 6xHis-MBP on Exoc5 cut with HRV3C, other subunits untagged; with Exocyst complex component 2; Exocyst complex component 3; Exocyst complex component 4; Exocyst complex component 5; Exocyst complex component 6; Exocyst complex component 8

[1] = biological target: T2, exocyst subcomplex-2 (Exoc5:6:7:8) (Homo sapiens, UniProt Q9UPT5)
T2 construct: gene EXOC7; Sf9 baculovirus; heterotetramer; with Exocyst complex component 5; Exocyst complex component 6; Exocyst complex component 8

[2] = biological target: T3, exocyst subcomplex-1 (Exoc1:2:3:4) (Homo sapiens, UniProt Q9NV70)
T3 construct: Sf9 baculovirus; heterotetramer; 6xHis-mNeonGreen-Exoc4 (tag kept), 6xHis-MBP on Exoc1 cut with HRV3C, Exoc2 and Exoc3 untagged; PH domain of Exoc1 is the known PI(4,5)P2 site; with Exocyst complex component 2; Exocyst complex component 3; Exocyst complex component 4

T2 sequence (Q9UPT5 whole entry): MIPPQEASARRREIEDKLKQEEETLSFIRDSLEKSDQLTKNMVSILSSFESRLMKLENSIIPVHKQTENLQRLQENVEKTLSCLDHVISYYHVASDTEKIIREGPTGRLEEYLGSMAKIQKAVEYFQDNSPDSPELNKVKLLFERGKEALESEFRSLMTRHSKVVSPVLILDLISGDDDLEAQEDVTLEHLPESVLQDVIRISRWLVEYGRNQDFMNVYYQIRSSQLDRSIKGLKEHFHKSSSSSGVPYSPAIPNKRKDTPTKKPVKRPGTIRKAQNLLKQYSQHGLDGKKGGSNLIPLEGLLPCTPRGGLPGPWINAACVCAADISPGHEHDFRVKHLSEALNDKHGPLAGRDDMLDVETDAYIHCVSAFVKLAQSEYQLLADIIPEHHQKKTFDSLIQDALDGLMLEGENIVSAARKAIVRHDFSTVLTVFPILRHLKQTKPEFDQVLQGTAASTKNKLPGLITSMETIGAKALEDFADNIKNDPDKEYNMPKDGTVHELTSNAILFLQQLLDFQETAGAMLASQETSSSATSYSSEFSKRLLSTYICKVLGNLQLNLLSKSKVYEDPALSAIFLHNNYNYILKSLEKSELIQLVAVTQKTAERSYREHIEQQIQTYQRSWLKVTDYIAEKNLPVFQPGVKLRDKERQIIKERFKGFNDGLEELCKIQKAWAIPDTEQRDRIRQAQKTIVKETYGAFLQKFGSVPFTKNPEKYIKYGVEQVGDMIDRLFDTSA
T2 sequence (O00471 2-708 partner): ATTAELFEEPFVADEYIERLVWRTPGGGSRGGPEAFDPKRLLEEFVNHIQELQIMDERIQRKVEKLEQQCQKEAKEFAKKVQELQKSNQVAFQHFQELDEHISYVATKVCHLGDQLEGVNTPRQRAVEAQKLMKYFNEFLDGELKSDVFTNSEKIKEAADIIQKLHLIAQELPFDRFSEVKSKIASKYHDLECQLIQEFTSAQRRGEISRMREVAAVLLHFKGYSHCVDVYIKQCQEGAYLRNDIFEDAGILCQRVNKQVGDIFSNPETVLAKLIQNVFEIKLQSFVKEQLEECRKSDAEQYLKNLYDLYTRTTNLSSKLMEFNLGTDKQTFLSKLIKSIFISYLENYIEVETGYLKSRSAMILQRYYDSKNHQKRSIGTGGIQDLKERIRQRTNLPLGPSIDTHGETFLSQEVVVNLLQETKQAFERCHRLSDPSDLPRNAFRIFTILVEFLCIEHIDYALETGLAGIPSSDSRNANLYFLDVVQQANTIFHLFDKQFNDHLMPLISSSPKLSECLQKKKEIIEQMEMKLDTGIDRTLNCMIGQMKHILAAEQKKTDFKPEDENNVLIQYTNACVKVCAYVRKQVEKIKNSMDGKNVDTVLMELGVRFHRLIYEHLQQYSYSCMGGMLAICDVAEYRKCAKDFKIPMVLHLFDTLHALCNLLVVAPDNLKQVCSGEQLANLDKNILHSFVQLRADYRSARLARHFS
T2 sequence (Q8TAG9 whole entry partner): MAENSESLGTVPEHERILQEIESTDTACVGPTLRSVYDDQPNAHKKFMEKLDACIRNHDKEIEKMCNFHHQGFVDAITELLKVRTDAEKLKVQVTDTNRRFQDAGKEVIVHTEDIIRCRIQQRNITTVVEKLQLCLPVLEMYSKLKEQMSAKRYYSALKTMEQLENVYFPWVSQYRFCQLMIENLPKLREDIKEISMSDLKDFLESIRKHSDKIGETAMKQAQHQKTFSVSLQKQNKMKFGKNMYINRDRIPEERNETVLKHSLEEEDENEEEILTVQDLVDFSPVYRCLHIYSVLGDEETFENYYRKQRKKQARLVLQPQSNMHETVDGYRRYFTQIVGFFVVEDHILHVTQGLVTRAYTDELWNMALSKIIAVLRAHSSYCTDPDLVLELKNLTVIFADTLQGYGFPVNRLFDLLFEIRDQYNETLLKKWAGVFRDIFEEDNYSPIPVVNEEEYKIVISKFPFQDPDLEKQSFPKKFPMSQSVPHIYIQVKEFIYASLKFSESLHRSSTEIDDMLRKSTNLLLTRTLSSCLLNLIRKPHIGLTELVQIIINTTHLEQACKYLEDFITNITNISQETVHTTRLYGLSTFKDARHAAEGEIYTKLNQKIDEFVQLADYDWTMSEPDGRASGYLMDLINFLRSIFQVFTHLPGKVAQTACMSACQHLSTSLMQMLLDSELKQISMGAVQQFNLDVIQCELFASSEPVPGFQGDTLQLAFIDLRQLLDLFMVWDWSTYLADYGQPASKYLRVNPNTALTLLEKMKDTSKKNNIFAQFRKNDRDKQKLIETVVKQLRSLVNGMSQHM
T2 sequence (Q8IYI6 whole entry partner): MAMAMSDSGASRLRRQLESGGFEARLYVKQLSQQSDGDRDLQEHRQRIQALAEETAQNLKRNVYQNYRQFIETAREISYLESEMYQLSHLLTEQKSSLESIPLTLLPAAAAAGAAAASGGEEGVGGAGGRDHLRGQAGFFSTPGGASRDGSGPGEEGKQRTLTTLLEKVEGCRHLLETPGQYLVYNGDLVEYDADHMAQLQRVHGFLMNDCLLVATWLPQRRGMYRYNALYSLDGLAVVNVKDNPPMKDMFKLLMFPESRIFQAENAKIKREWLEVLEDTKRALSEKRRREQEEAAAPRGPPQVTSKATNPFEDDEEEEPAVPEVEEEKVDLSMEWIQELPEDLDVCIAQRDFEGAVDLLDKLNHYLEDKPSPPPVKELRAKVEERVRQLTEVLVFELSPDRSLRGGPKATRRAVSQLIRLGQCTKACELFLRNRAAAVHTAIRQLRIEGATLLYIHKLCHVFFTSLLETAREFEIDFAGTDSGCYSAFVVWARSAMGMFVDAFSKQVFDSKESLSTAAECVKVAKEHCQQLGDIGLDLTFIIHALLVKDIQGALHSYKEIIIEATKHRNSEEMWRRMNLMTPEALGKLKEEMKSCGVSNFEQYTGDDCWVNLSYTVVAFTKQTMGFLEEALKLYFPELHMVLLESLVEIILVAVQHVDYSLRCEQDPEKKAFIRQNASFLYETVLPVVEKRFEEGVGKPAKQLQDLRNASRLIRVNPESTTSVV

CCCCCCCCCCCCCCCC(=O)OC[C@H](COP(=O)(O)O[C@@H]1[C@H](O)[C@H](O)[C@@H](OP(=O)(O)O)[C@H](OP(=O)(O)O)[C@H]1O)OC(=O)CCCCCCCCCCCCCCC [PI(4,5)P2]
Kd (exocyst holocomplex): 99.4 nM
Kd [1]: 38.5 nM
Kd [2]: 36.1 nM
